The text below walks through data of patent US20030220254A1, “Composition and method for preparation of an oral dual controlled release formulation of a protein and inhibitor” (TEXAS TECH UNIVERSITY SYSTEM, priority 2002, published 2003).

A word on the half-life: it is the time needed for the level to fall by half in the phase considered. A word on the share remaining: it is the share of the starting amount still present when the sample was taken.

For one data set, the system named is Caco-2 cell homogenate. Kind of data set: Stability of sCT in Caco-2 cell homogenate. It counts as in vitro ADME, Human. The settings on record: Caco-2 homogenate, sCT 50 μM. As for the experimental part:
Human colon adenocarcinoma (Caco-2) cells were cultured, in an atmosphere of 5% CO2 at 37° C. in T-75 tissue culture flasks using DMEM supplemented with 10% FBS, 100 U/ml penicillin, 100 μg/ml streptomycin, 1.25 ml human Transferrin. The medium was changed every other day until the flasks reached 90% confluence (3-4 days). Caco-2 cells of less than 20 passages were used. Caco-2 homogenate was prepared according to the method of Augustijns et al. with slight modification. Briefly, the Caco-2 monolayer was washed three times with ice-cold PBS (pH 7.4). The cells were scraped off with a tissue culture scraper on ice and homogenized in 1 ml ice-cold PBS using a mechanical homogenizer. The mixture was centrifuged at 12,000 rpm for 10 min at 4° C. The resultant supernatant was used as Caco-2 homogenate. The protein content was determined using BCA assay. Tryspin and chymotrypsin assay was done for the homogenate as described below.
(§1) The degradation of sCT was studied by incubating the sCT solution to a final concentration of 50 μM with 900 μl Caco-2 cell and goat intestinal homogenates. The samples were withdrawn at 0 and 60 min and were diluted immediately with cold TFA 1%. The samples containing intestinal homogenate were centrifuged at 5000 g for 10 min to remove precipitated proteins. The supernatant was injected into HPLC to determine the sCT content.

Another data set deals with T1, trypsin (Bos taurus, UniProt P00760).
T1 construct: gene PRSS1
T1 sequence (P00760 24-246): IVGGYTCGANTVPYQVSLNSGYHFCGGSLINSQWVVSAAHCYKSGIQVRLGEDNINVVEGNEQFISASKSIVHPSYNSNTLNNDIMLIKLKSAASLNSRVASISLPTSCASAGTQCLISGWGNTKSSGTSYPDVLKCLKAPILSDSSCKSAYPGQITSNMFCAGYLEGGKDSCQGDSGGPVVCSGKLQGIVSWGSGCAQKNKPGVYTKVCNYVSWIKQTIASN
The data set is described as follows: Stability of sCT in the presence of trypsin and protease inhibitors. It is filed as biochemical. On the set-up: half-life: dose or concentration left out as unconfirmed. As for the experimental part: (§2) sCT solutions (50 μM) were incubated at 37° C. in 50 mM Tris buffer containing 0.1 mM calcium chloride (pH 8.0). Degradation profiles generated in the presence of 0.5 μM trypsin and 0.1 μM α-chymotrypsin served as controls. The concentrations were selected on the basis of a reported study (Schilling R. J. and Mitra A. K. 1991). DkOVM and TkOVM were evaluated at different enzyme-to-inhibitor ratios to evaluate their inhibition of sCT degradation. CkOVM and aprotinin were used at 1:1 enzyme-to-inhibitor ratio in order to compare the efficacy of various protease inhibitors used. sCT and enzyme solutions were incubated for 15 min at 37° C. before starting the experiments. Samples were taken after 0, 5, 15, 30 and 60 min and immediately diluted with cold 1% trifluoroacetic acid (TFA) to reduce the pH to 2.5. The samples were analysed at 4° C. by HPLC given below. Plots of sCT remaining against time were generated. 160 values (amount of sCT (%) remaining after 60 min) were used to compare the efficacy of the ovomucoids. Similar studies were performed with aprotinin. The study was also conducted by incubating 50 μM sCT solutions with 0.5 μM trypsin and 0.1 μM α-chymotrypsin added together and the efficacy of TkOVM was evaluated at various ratios.
(§3) sCT was analyzed by means of our validated HPLC method (Shah R B, et al., 2003). Briefly, a computer controlled Varian Chromatography workstation consisting of the following components was used: Two Dynamax SD-200 pumps, an AI-200A autosampler fitted with a 100 μl injection loop, a Dynamax UV-1 detector and Star 5.3 chromatography software. Room temperature was maintained for the column and chromatographic separations were carried out on a C-18 Vydac 218MS54 column (5 μm, 4.6×250 mm) with a pore size of 300 Å. 50 μl of samples were injected into the column which were analyzed by the reversed phase HPLC method. The mobile phase consisted of 0.05% v/v TFA-Water (A) and 0.05% v/v TFA-Acetonitrile (B). The gradient conditions were 20-35% B for 10 min, 35-37% B from 10th to 20th min and 37-20% B from 20th to 25th min at a flow rate of 1 ml/min. […] Concentrations of sCT were quantified from integrated peak areas and calculated by interpolation from an according standard curve.

The next data set in a line: in vitro. Particulars: goat, real gastrointestinal fluid or homogenate, pH 7.4. It counts as in vitro ADME. The method, then:
Goat intestinal homogenate was prepared using a reported method for preparation of intestinal homogenate with minor modifications (Yamamoto et al., 1990). Briefly, fresh goat intestinal tissues, obtained from a local slaughter house, were washed with phosphate buffered saline (PBS) pH 7.4 at 4° C. and stored at −80° C. Immediately before each experiment, specimens were thawed at room temperature and then were washed again with PBS at 4° C. 25 g of tissue was cut from the small intestinal region and was homogenized in 10 ml PBS at 4° C. by use of a mechanical homogenizer for 5 min. The homogenate was centrifuged at 5000 g in a refrigerated (4° C.) centrifuge for 10 min to remove cellular and nuclear debris. The resulting supernatant was assayed for protein content by BCA assay with bovine serum albumin as the standard. The supernatant was also assayed for trypsin and chymotrypsin content.
as §1

The target in a further data set is α-chymotrypsin (Bos taurus, UniProt P00766). Kind of data set: Stability of sCT in the presence of α-chymotrypsin and protease inhibitors. It counts as biochemical. Set-up: half-life: dose or concentration left out as unconfirmed. The settings on record: no inhibitor. As for the experimental part: as §2, §3
The test system of data set [1] is trypsin and α-chymotrypsin. The data set is described as follows: Stability of sCT with trypsin and α-chymotrypsin added together, with TkOVM. It counts as biochemical. Particulars: pH 8, no inhibitor, read-out: Half-life (min) of hydrolysis of sCT. As for the experimental part:
as §2, with “Plots of sCT remaining against time were generated. 160 values (amount of sCT (%) remaining after 60 min) were used to compare the efficacy of the ovomucoids. Similar studies were performed with aprotinin.” left out
sCT was analyzed by means of our validated HPLC method (Shah R B, et al., 2003). […] 50 μl of samples were injected into the column which were analyzed by the reversed phase HPLC method. […] Concentrations of sCT were quantified from integrated peak areas and calculated by interpolation from an according standard curve.

Turning to `CC(C)C[C@H](NC(=O)[C@H](CCCCN)NC(=O)CNC(=O)[C@H](CC(C)C)NC(=O)[C@@H](NC(=O)[C@@H]1CSSC[C@H](N)C(=O)N[C@@H](CO)C(=O)N[C@@H](CC(N)=O)C(=O)N[C@@H](CC(C)C)C(=O)N[C@@H](CO)C(=O)N[C@@H]([C@@H](C)O)C(=O)N1)C(C)C)C(=O)N[C@@H](CO)C(=O)N[C@@H](CCC(N)=O)C(=O)N[C@@H](CCC(=O)O)C(=O)N[C@@H](CC(C)C)C(=O)N[C@@H](Cc1c[nH]cn1)C(=O)N[C@@H](CCCCN)C(=O)N[C@@H](CC(C)C)C(=O)N[C@@H](CCC(N)=O)C(=O)N[C@H](C(=O)N[C@@H](Cc1ccc(O)cc1)C(=O)N1CCC[C@H]1C(=O)N[C@@H](CCCNC(=N)N)C(=O)N[C@H](C(=O)N[C@@H](CC(N)=O)C(=O)N[C@H](C(=O)NCC(=O)N[C@@H](CO)C(=O)NCC(=O)N[C@H](C(=O)N1CCC[C@H]1C(N)=O)[C@@H](C)O)[C@@H](C)O)[C@@H](C)O)[C@@H](C)O` [sCT, salmon calcitonin], the “Amount (%) of sCT remaining at 60 min (I60)” value with Caco-2 cell homogenate is given as 81.46 ± 10.89%; at trypsin (control, sCT 50 μM without enzyme) it was 103.76 ± 3.10%; on trypsin (trypsin 0.5 μM, no inhibitor) it was 0.00 ± 0.00%; at α-chymotrypsin (chymotrypsin 0.1 μM), 16.18 ± 0.48%. Also, the half-life worked out at 1.51 min on trypsin (pH 8, trypsin, no inhibitor, read-out: Half-life (min) of hydrolysis of sCT) and 22.4 min at α-chymotrypsin (pH 8, α-chymotrypsin, read-out: Half-life (min) of hydrolysis of sCT). This compound also gave a fraction remaining at 1 h, 50 μM in “in vitro” of 91.7 ± 17.6%. Further, the half-life at 50 μM in data set [1] was determined as 0.77 min.
